Test results taken from patent publication US20180015017A1, “USE OF GLUCOSYLGLYCEROL” (Bitop AG, priority 2008, published 2018).

What was measured:
SOD-1 = test: Expression of SOD-1 mRNA in keratinocytes (33P-labeled cDNA chip, phosphor imaging); assay type: cell-based, human; details: for Upregulation of the cytosolic SOD-1: relative amount of hybridized targets (radioactivity, phosphor imaging): NHEK keratinocytes, 0.5-% (w/w) aqueous solution; for increase of the expression of SOD-1: keratinocytes, 0.5-% glucosylglycerol solution
Experimental: (§1) In these tests appropriate cell cultures were treated with a glucosylglycerol solution and the transcribed mRNA quantified. For this purpose the mRNA was first extracted to produce a ^33P labeled target with the help of a reverse transcriptase. Following this, these targets were applied to a cDNA chip and the radioactivity measured by means of the phosphor imaging method. The cDNA chip contained an array of the cDNAs of various proteins.
(§2) The investigations were carried out with epidermal keratinocytes (NHEK, normal human epidermal keratinocytes) and dermal fibroblasts (NHDF, normal human dermal fibroblasts). In the case of the keratinocytes a 0.5-% (w/w) and in the case of the fibroblasts a 1-% (w/w) aqueous glucosylglycerol solution was used for the treatment.
Keratinocytes: Keratinocyte-SFM (Invitrogen 17005-034) blended with epidermal growth factor (EGF) 0.25 ng/ml, pituitary extract (PE) 25 μg/ml (Invitrogen 3700015), Gentamycin […] (Sigma G1397).
(§3) Culturing took place for a period of 24 and 96 hours. At the end of the incubation period the cells were washed with PBS solution (Invitrogen 14190094).
(§4) The extraction of mRNA of each culture was achieved using TriReagent as per a standard protocol. The relevant cDNAs with ^33P-labeled targets was produced by reverse transcription of mRNA using [α^33P]-dATP and oligodT.
(§5) The labeled cDNA targets were hybridized to the specific cDNA probes covalently fixed to minichips. After thorough washing the relative amount of the hybridized targets was determined by means of the phosphor imaging method. This analysis was performed by measuring the radioactivity by means of a “Cyclone” Phosphor Imager (Packard Instruments; 72 hours exposure time) and using the ImageQuant TL-Software (Amersham Biosiences).

SOD-2 = test: Expression of SOD-2 mRNA in fibroblasts (33P-labeled cDNA chip, phosphor imaging); assay type: cell-based, human; details: for Upregulation of SOD-2: relative amount of hybridized targets (radioactivity, phosphor imaging): NHDF fibroblasts, 1-% (w/w) aqueous solution
Experimental: as §1, §2
Fibroblasts: DMEM (Invitrogen 21969035), blended with L-glutamine 2 mM (Invitrogen 25030024), Penicillin 50 Ul/ml/Streptomycin 50 μg/ml (Invitrogen 15070063), fetal calf serum 10% (FCS, Invitrogen 10270098).
as §3, §4, §5

OCC(CO)O[C@H]1O[C@H](CO)[C@@H](O)[C@H](O)[C@H]1O [glucosylglycerol, 2-O-α-D-glucosylglycerol]
Upregulation of the cytosolic SOD-1: relative amount of hybridized targets (radioactivity, phosphor imaging) (SOD-1; 24 h, control 18.2): 85
Upregulation of the cytosolic SOD-1: relative amount of hybridized targets (radioactivity, phosphor imaging) (SOD-1; 96 h, control 9.3): 182
increase of the expression of SOD-1 (SOD-1; within 24 hours): 4.7 times
increase of the expression of SOD-1 (SOD-1; within 96 hours): 19.6 times
Upregulation of SOD-2: relative amount of hybridized targets (radioactivity, phosphor imaging) (SOD-2; 24 h, control 16.5): 419
Upregulation of SOD-2: relative amount of hybridized targets (radioactivity, phosphor imaging) (SOD-2; 96 h, control 9.1): 313
higher expression of SOD-2 (SOD-2; fibroblasts, 1-% glucosylglycerol solution, within 24 hours): 25.4 times
increase of expression of SOD-2 (SOD-2; fibroblasts, 1-% glucosylglycerol solution, within 96 hours): 34.4 fold
